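Briefly, cells in 96-well plates were exposed to five compound concentrations for 48 h, and endpoints were estimated by linear interpolation. Here, GI50 denotes the concentration required for 50% inhibition of growth. Definition used: TGI = concentration required for complete inhibition of growth.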
Assays:
Assay in all cases: DTP human tumour cell line panel, 48 h
CCRF-CEM leukemia = system: CCRF-CEM leukemia
PC-3 prostate = system: PC-3 prostate
ACHN renal = system: ACHN renal
OVCAR-3 ovarian = system: OVCAR-3 ovarian
HOP-62 NSCLC = system: HOP-62 NSCLC
HCT-116 colon = system: HCT-116 colon
NCI-H460 lung = system: NCI-H460 lung
SF-295 CNS = system: SF-295 CNS
OVCAR-5 ovarian = system: OVCAR-5 ovarian
SK-OV-3 ovarian = system: SK-OV-3 ovarian

## CN[C@@H](C)C(=O)N[C@H]1CN(S(=O)(=O)c2cccc(S(=O)(=O)N3CC[C@H]4CC[C@@H](C(=O)NC(c5ccccc5)c5ccccc5)N4C(=O)[C@@H](NC(=O)[C@H](C)NC)C3)c2)CC[C@H]2CC[C@@H](C(=O)NC(c3ccccc3)c3ccccc3)N2C1=O
CCRF-CEM leukemia
  GI50: 1.85 µM
  TGI: > 100 µM
PC-3 prostate
  GI50: 21.5 µM
  TGI: > 63.3 µM
ACHN renal
  GI50: > 79.7 µM
  TGI: > 100 µM
OVCAR-3 ovarian
  GI50: 12.2 µM
  TGI: 25.2 µM
HOP-62 NSCLC
  GI50: 5.14 µM
  TGI: > 100 µM
HCT-116 colon
  GI50: 18.4 µM
  TGI: 51.2 µM
NCI-H460 lung
  GI50: 20.2 µM
  TGI: 46.3 µM
SF-295 CNS
  GI50: 14.4 µM
  TGI: > 71.4 µM
OVCAR-5 ovarian
  GI50: 18.6 µM
  TGI: 39.9 µM

## COc1ccc(OC)c(NCC(=O)n2nc(/C=C\c3ccc(O)c(OC)c3)cc2/C=C\c2ccc(O)c(OC)c2)c1
CCRF-CEM leukemia
  GI50: 0.474 µM
  TGI: > 100 µM
PC-3 prostate
  GI50: 2.52 µM
  TGI: > 100 µM
OVCAR-3 ovarian
  GI50: 2.58 µM
  TGI: 13.9 µM
HOP-62 NSCLC
  GI50: 3.03 µM
  TGI: 13 µM
NCI-H460 lung
  GI50: 2.59 µM
  TGI: 9.84 µM
SK-OV-3 ovarian
  GI50: 2.38 µM
  TGI: 6.23 µM
SF-295 CNS
  GI50: 2.44 µM
  TGI: 6.08 µM
OVCAR-5 ovarian
  GI50: 2.35 µM
  TGI: 5.54 µM

## CC(=O)ON1CCCC(P(=O)(OCOC(=O)C(C)(C)C)OCOC(=O)C(C)(C)C)C1=O (stereo not drawn)
CCRF-CEM leukemia
  GI50: 0.125 µM
  TGI: 7.81 µM
PC-3 prostate
  GI50: 1.23 µM
  TGI: 17.4 µM
ACHN renal
  GI50: 0.596 µM
  TGI: 13.5 µM
OVCAR-3 ovarian
  GI50: 0.775 µM
  TGI: 4.49 µM
HOP-62 NSCLC
  GI50: 0.923 µM
  TGI: 7.53 µM
HCT-116 colon
  GI50: 0.249 µM
  TGI: 4.88 µM
NCI-H460 lung
  GI50: 0.959 µM
  TGI: 4.71 µM
SK-OV-3 ovarian
  GI50: 0.923 µM
  TGI: 13.3 µM
SF-295 CNS
  GI50: 2.37 µM
  TGI: 29 µM
OVCAR-5 ovarian
  GI50: 1.94 µM
  TGI: 20.3 µM

## CC(Br)C(=O)NC(CO)C(=O)O (stereo not drawn)
CCRF-CEM leukemia
  TGI: > 100 µM
PC-3 prostate
  TGI: > 100 µM
ACHN renal
  TGI: > 100 µM
OVCAR-3 ovarian
  TGI: > 100 µM
HOP-62 NSCLC
  TGI: > 100 µM
HCT-116 colon
  TGI: > 100 µM
NCI-H460 lung
  TGI: > 100 µM
SK-OV-3 ovarian
  TGI: > 100 µM
SF-295 CNS
  TGI: > 100 µM
OVCAR-5 ovarian
  TGI: > 100 µM

## Cc1ccc(O)cc1Nc1ccnc2ccc(S(C)(=O)=O)cc12
CCRF-CEM leukemia
  GI50: > 25 µM
  TGI: > 25 µM
PC-3 prostate
  GI50: 4.2 µM
  TGI: > 25 µM
ACHN renal
  GI50: 0.612 µM
  TGI: 7.75 µM
OVCAR-3 ovarian
  GI50: 4.82 µM
  TGI: > 22.8 µM
HOP-62 NSCLC
  GI50: 2.35 µM
  TGI: > 25 µM
HCT-116 colon
  GI50: 3.53 µM
  TGI: > 25 µM
NCI-H460 lung
  GI50: 10.5 µM
  TGI: > 25 µM
SK-OV-3 ovarian
  GI50: 3.22 µM
  TGI: > 25 µM
SF-295 CNS
  GI50: 3.34 µM
  TGI: > 25 µM
OVCAR-5 ovarian
  GI50: 1.41 µM
  TGI: 14.5 µM

## COc1cc2c(cc1Nc1nc(N3CCc4ccccc43)c3cc[nH]c3n1)N(C(=O)CN(C)C)CC2
CCRF-CEM leukemia
  GI50: 0.611 µM
  TGI: 1.49 µM
PC-3 prostate
  GI50: 2.24 µM
  TGI: 6.43 µM
ACHN renal
  GI50: 4.4 µM
  TGI: 8.82 µM
OVCAR-3 ovarian
  GI50: 2.08 µM
  TGI: 4.98 µM
HOP-62 NSCLC
  GI50: 4.62 µM
  TGI: 9.46 µM
HCT-116 colon
  GI50: 1.33 µM
  TGI: 2.91 µM
NCI-H460 lung
  GI50: 1.29 µM
  TGI: 2.79 µM
SK-OV-3 ovarian
  GI50: 20.5 µM
  TGI: 25 µM
SF-295 CNS
  GI50: 4.79 µM
  TGI: 11.8 µM
OVCAR-5 ovarian
  GI50: 1.22 µM
  TGI: 5.63 µM

## Cc1c(C(=N)C(C#N)C#N)c(=N)oc2c1ccc1ccccc12
CCRF-CEM leukemia
  GI50: 13 µM
  TGI: > 100 µM
PC-3 prostate
  GI50: 29.5 µM
  TGI: > 100 µM
ACHN renal
  GI50: 23.1 µM
  TGI: > 100 µM
OVCAR-3 ovarian
  GI50: 14.7 µM
  TGI: 40.8 µM
HOP-62 NSCLC
  GI50: 21.7 µM
  TGI: 77.6 µM
HCT-116 colon
  GI50: 17.6 µM
  TGI: > 100 µM
NCI-H460 lung
  GI50: 27.2 µM
  TGI: > 100 µM
SK-OV-3 ovarian
  GI50: 21.3 µM
  TGI: 63.3 µM
SF-295 CNS
  GI50: 33.9 µM
  TGI: > 100 µM
OVCAR-5 ovarian
  GI50: 39.5 µM
  TGI: > 100 µM

## Cn1c([N+](=O)[O-])cnc1C=C1C(=O)c2ccccc2C1=O
CCRF-CEM leukemia
  GI50: 1.85 µM
  TGI: 6.53 µM
PC-3 prostate
  GI50: 8.89 µM
  TGI: 28.5 µM
ACHN renal
  GI50: 3.75 µM
  TGI: 13.7 µM
OVCAR-3 ovarian
  GI50: 4.67 µM
  TGI: 14.8 µM
HOP-62 NSCLC
  GI50: 10.7 µM
  TGI: 29.5 µM
HCT-116 colon
  GI50: 3.77 µM
  TGI: 13.1 µM
NCI-H460 lung
  GI50: 7.1 µM
  TGI: 22 µM
SK-OV-3 ovarian
  GI50: 6.32 µM
  TGI: 29.4 µM
SF-295 CNS
  GI50: 21.2 µM
  TGI: 77.7 µM
OVCAR-5 ovarian
  GI50: 6 µM
  TGI: 18.7 µM

## CCN=c1sc2c(n1NC(=O)c1cc3ccc1CCc1ccc(cc1)CC3)C(=O)c1ccccc1C2=O
CCRF-CEM leukemia
  GI50: 1.01 µM
  TGI: 33.3 µM
PC-3 prostate
  GI50: 0.643 µM
  TGI: 3.05 µM
ACHN renal
  GI50: 0.492 µM
  TGI: 0.965 µM
OVCAR-3 ovarian
  GI50: 0.567 µM
  TGI: 1.52 µM
HOP-62 NSCLC
  GI50: 1.02 µM
  TGI: 2.76 µM
HCT-116 colon
  GI50: 0.754 µM
  TGI: 2.07 µM
NCI-H460 lung
  GI50: 1.31 µM
  TGI: 4.86 µM
SK-OV-3 ovarian
  GI50: 4.49 µM
  TGI: 8.95 µM
SF-295 CNS
  GI50: 0.951 µM
  TGI: 2.64 µM
OVCAR-5 ovarian
  GI50: 0.587 µM
  TGI: 1.15 µM

## Cc1cccc(NC(=O)c2sc3nc4c(cc3c2N)C(=O)CCC4)c1
CCRF-CEM leukemia
  GI50: 2.26 µM
  TGI: > 100 µM
PC-3 prostate
  GI50: 0.397 µM
  TGI: > 48.1 µM
ACHN renal
  GI50: 1.48 µM
  TGI: > 58.5 µM
OVCAR-3 ovarian
  GI50: 0.257 µM
  TGI: 1.18 µM
HOP-62 NSCLC
  GI50: 0.425 µM
  TGI: > 43.7 µM
HCT-116 colon
  GI50: 0.333 µM
  TGI: > 100 µM
NCI-H460 lung
  GI50: 0.312 µM
  TGI: > 39.3 µM
SK-OV-3 ovarian
  GI50: 0.317 µM
  TGI: > 100 µM
SF-295 CNS
  GI50: 0.194 µM
  TGI: > 47.6 µM
OVCAR-5 ovarian
  TGI: > 57.7 µM

## O=c1c2ccccc2sc2c(CO)ccc(NCCN3CCCCC3)c12
CCRF-CEM leukemia
  TGI: 3.99 µM
PC-3 prostate
  TGI: 15.1 µM
ACHN renal
  TGI: 9.45 µM
OVCAR-3 ovarian
  TGI: 7.71 µM
HOP-62 NSCLC
  TGI: 14.6 µM
HCT-116 colon
  TGI: 11.8 µM
NCI-H460 lung
  TGI: 8.37 µM
SK-OV-3 ovarian
  TGI: 16.3 µM
SF-295 CNS
  TGI: 17.4 µM
OVCAR-5 ovarian
  TGI: 20 µM

## COc1ccc2sc3c(NCCCN)nc4ccccc4c3c(=O)c2c1
CCRF-CEM leukemia
  GI50: 1.79 µM
  TGI: 3.66 µM
PC-3 prostate
  GI50: 1.5 µM
  TGI: 3.05 µM
ACHN renal
  GI50: 1.69 µM
  TGI: 3.07 µM
OVCAR-3 ovarian
  GI50: 1.77 µM
  TGI: 3.32 µM
HOP-62 NSCLC
  GI50: 1.7 µM
  TGI: 3.46 µM
HCT-116 colon
  GI50: 1.5 µM
  TGI: 2.85 µM
NCI-H460 lung
  GI50: 1.86 µM
  TGI: 3.55 µM
SK-OV-3 ovarian
  GI50: 1.61 µM
  TGI: 3.66 µM
SF-295 CNS
  GI50: 1.79 µM
  TGI: 3.36 µM
OVCAR-5 ovarian
  GI50: 1.68 µM
  TGI: 3.28 µM

## CCN(C)c1nc(N(C)CC)c2nc(N(C)CC)nc(N(C)CC)c2n1
CCRF-CEM leukemia
  TGI: > 100 µM
PC-3 prostate
  TGI: > 100 µM
ACHN renal
  TGI: > 100 µM
OVCAR-3 ovarian
  TGI: > 100 µM
HOP-62 NSCLC
  TGI: > 100 µM
HCT-116 colon
  TGI: > 100 µM
NCI-H460 lung
  TGI: > 100 µM
SK-OV-3 ovarian
  TGI: > 100 µM
SF-295 CNS
  TGI: > 100 µM
OVCAR-5 ovarian
  TGI: > 100 µM
